Data from paper PMC7719179, “Small molecule inhibition of Dynamin-dependent endocytosis targets multiple niche signals and impairs leukemia stem cells” (Nature Communications, 2020).

Key:
Ba/F3-SGM3R cells = assay: Survival of cytokine-dependent Ba/F3-SGM3R cells, 48 h; format: cell-based, murine; conditions: result in words
From the text: The coding sequence of murine Csf2ra (gm-csfr) and c-Kit was amplified by PCR from cDNA of bone marrow mononuclear cells of a healthy WT donor using primers mGmcsfr-FL-F and mGmcsfr-FL-R, and mKit-FL-F and mKit-FL-R, respectively (Table 3). The PCR product was cloned into the XhoI and EcoRI sites of pMIG-R1, which was kindly given by Pear et al.[82],[83]. Ba/F3 cells were infected with pMIG-R1/Gmcsfr retroviral supernatants produced in 293T cells, transduced cells were sorted with a BD Influx (BD Australia) and selected by culture in medium supplemented with 25 ng/mL rmGm-csf (#305-03, Pepro Tech, Rocky Hill NJ, USA) for 7 days. Finally, Ba/F3 cells stably expressing Gm-csfr were infected with pMIG-R1/Kit retroviral supernatants produced in 293T cells to generate Ba/F3-SMG3R cells, which were sorted with a BD Influx and maintained in medium supplemented with 5 ng/mL rmIL-3 (#213-13, Pepro Tech, Rocky Hill NJ, USA).
Supplementary Figure 8. […]
Basal levels of live cells were measured in BaF3-SGM3R cells cultured without cytokines (white bar). b, Levels of activated Stat5 (pStat5) in BaF3-SGM3 R cells stimulated with IL-3 (purple bars) and GM -CSF (yellow bars), and SCF-induced phospho-Erk (green bars), treated with increasing doses of Dynole 34-2 assessed by flow cytometry.

[1] = system: IL-3R, GM-CSFR and KIT internalization in patient-derived AML cells; assay: Surface expression of IL-3R, GM-CSFR and KIT in patient-derived AML cells; format: cell-based, human; conditions: for GM-CSFR FOLD / IL-3R FOLD / KIT FOLD: relative expression vs Unstimulated

Compound: CCCCCCCCNC(=O)C(C#N)=Cc1cn(CCCN(C)C)c2ccccc12 [Dynole 34-2, 2-Cyano-N-octyl-3-(1-(3-dimethylaminopropyl)-1H-indol-3-yl)-acrylamide]
- cell death of Ba/F3-SGM3R cells (Ba/F3-SGM3R cells): induced cell death in a dose-dependent manner
- GM-CSFR MFI ([1]; AML01-021): 11447 MFI
- IL-3R MFI ([1]; AML01-021): 745 MFI
- KIT MFI ([1]; AML01-021): 1568 MFI
- GM-CSFR FOLD ([1]; AML01-021): 1.03
- IL-3R FOLD ([1]; AML01-021): 1.00
- KIT FOLD ([1]; AML01-021): 0.89
- GM-CSFR MFI ([1]; AML01-050): 15894 MFI
- IL-3R MFI ([1]; AML01-050): 4010 MFI
- KIT MFI ([1]; AML01-050): 273 MFI
- GM-CSFR FOLD ([1]; AML01-050): 1.01
- IL-3R FOLD ([1]; AML01-050): 1.14
- KIT FOLD ([1]; AML01-050): 1.25
- GM-CSFR MFI ([1]; AML01-072): 971 MFI
- IL-3R MFI ([1]; AML01-072): 7383 MFI
- KIT MFI ([1]; AML01-072): 1318 MFI
- GM-CSFR FOLD ([1]; AML01-072): 1.12
- IL-3R FOLD ([1]; AML01-072): 1.05
- KIT FOLD ([1]; AML01-072): 1.74
- GM-CSFR MFI ([1]; AML01-226): 10157 MFI
- IL-3R MFI ([1]; AML01-226): 983 MFI
- KIT MFI ([1]; AML01-226): 612 MFI
- GM-CSFR FOLD ([1]; AML01-226): 1.05
- IL-3R FOLD ([1]; AML01-226): 0.99
- KIT FOLD ([1]; AML01-226): 0.58
- GM-CSFR MFI ([1]; AML01-307): 649 MFI
- IL-3R MFI ([1]; AML01-307): 4023 MFI
- KIT MFI ([1]; AML01-307): 5991 MFI
- GM-CSFR FOLD ([1]; AML01-307): 1.01
- IL-3R FOLD ([1]; AML01-307): 0.94
- KIT FOLD ([1]; AML01-307): 0.93
- GM-CSFR MFI ([1]; AML02-078): 13405 MFI
- IL-3R MFI ([1]; AML02-078): 4410 MFI
- KIT MFI ([1]; AML02-078): 1516 MFI
- GM-CSFR FOLD ([1]; AML02-078): 1.27
- IL-3R FOLD ([1]; AML02-078): 1.17
- KIT FOLD ([1]; AML02-078): 0.91
- GM-CSFR MFI ([1]; AML02-123): 1180 MFI
- IL-3R MFI ([1]; AML02-123): 2544 MFI
- KIT MFI ([1]; AML02-123): 34855 MFI
- GM-CSFR FOLD ([1]; AML02-123): 1.42
- IL-3R FOLD ([1]; AML02-123): 1.10
- KIT FOLD ([1]; AML02-123): 0.82
- GM-CSFR MFI ([1]; AML02-232): 16645 MFI
- IL-3R MFI ([1]; AML02-232): 506 MFI
- KIT MFI ([1]; AML02-232): 357 MFI
- GM-CSFR FOLD ([1]; AML02-232): 1.09
- IL-3R FOLD ([1]; AML02-232): 1.00
- KIT FOLD ([1]; AML02-232): 0.82
- GM-CSFR MFI ([1]; AML03-330): 10769 MFI
- IL-3R MFI ([1]; AML03-330): 356 MFI
- KIT MFI ([1]; AML03-330): 372 MFI
- GM-CSFR FOLD ([1]; AML03-330): 1.12
- IL-3R FOLD ([1]; AML03-330): 0.98
- KIT FOLD ([1]; AML03-330): 0.79
- GM-CSFR MFI ([1]; AML03-331): 9530 MFI
- IL-3R MFI ([1]; AML03-331): 798 MFI
- KIT MFI ([1]; AML03-331): 1709 MFI
- GM-CSFR FOLD ([1]; AML03-331): 0.88
- IL-3R FOLD ([1]; AML03-331): 1.00
- KIT FOLD ([1]; AML03-331): 0.98
- GM-CSFR MFI ([1]; AML4): 853 MFI
- IL-3R MFI ([1]; AML4): 1014 MFI
- KIT MFI ([1]; AML4): 5020 MFI
- GM-CSFR FOLD ([1]; AML4): 1.48
- IL-3R FOLD ([1]; AML4): 0.99
- KIT FOLD ([1]; AML4): 0.98
- GM-CSFR MFI ([1]; AML16): 4656 MFI
- IL-3R MFI ([1]; AML16): 827 MFI
- KIT MFI ([1]; AML16): 6207 MFI
- GM-CSFR FOLD ([1]; AML16): 0.80
- IL-3R FOLD ([1]; AML16): 0.78
- KIT FOLD ([1]; AML16): 0.87
- GM-CSFR MFI ([1]; AML17): 9268 MFI
- IL-3R MFI ([1]; AML17): 6591 MFI
- KIT MFI ([1]; AML17): 21009 MFI
- GM-CSFR FOLD ([1]; AML17): 1.01
- IL-3R FOLD ([1]; AML17): 1.12
- KIT FOLD ([1]; AML17): 1.17
- GM-CSFR MFI ([1]; AML18): 13295 MFI
- IL-3R MFI ([1]; AML18): 2046 MFI
- KIT MFI ([1]; AML18): 1285 MFI
- GM-CSFR FOLD ([1]; AML18): 1.08
- IL-3R FOLD ([1]; AML18): 1.00
- KIT FOLD ([1]; AML18): 1.36
- GM-CSFR MFI ([1]; AML34): 3573 MFI
- IL-3R MFI ([1]; AML34): 397 MFI
- KIT MFI ([1]; AML34): 4661 MFI
- GM-CSFR FOLD ([1]; AML34): 1.00
- IL-3R FOLD ([1]; AML34): 0.99
- KIT FOLD ([1]; AML34): 1.07
- GM-CSFR MFI ([1]; AML54): 1872 MFI
- IL-3R MFI ([1]; AML54): 508 MFI
- KIT MFI ([1]; AML54): 10397 MFI
- GM-CSFR FOLD ([1]; AML54): 1.08
- IL-3R FOLD ([1]; AML54): 0.86
- KIT FOLD ([1]; AML54): 0.90
- internalization of IL-3R and GM-CSFR ([1]; patient-derived AML cells stimulated with IL-3 and GM-CSF, result in words): prevented the internalization
